Results published in patent US9271982B2, “Animal feed supplement comprising ractopamine and caffeine” (Rivalea (Australia) Pty Ltd, priority 2012, dated 2016).
Counter-ions that a name gives are not always drawn. Like-named read-outs stand apart in the source and are kept apart here.

Experiments:
finisher pigs = test: Earlier study evaluating caffeine inclusion rates in finisher diets; format: in vivo, pig; conditions: for Feed intake: without caffeine 2.62 kg/d
Source text: The management of weight and carcass P2 during Autumn is critical in markets that are paid on a grid of both parameters. The rate of fat deposition is at a maximum during the finisher period and is related to the amount of energy consumed by the pig. Excess energy intake above that required for protein deposition during this time is deposited as fat. As such, strategies to reduce feed intake from the excessive highs during autumn are often implemented. Caffeine is one ingredient that can be included in finisher diets to limit excessive feed intake. A study evaluating caffeine inclusion rates was conducted with the results confirming the intake restricting effects of caffeine inclusion. Feed intake was reduced from 2.62 kg/d to 2.45 and 2.33 kg/d with caffeine included in the diet at either 0.5 kg/t or 0.75 kg/t respectively. […] There has however been no evaluation of the effects of caffeine inclusion when the finisher diet also contains Paylean™. As such, the aim of this study was to determine the effects of caffeine inclusion when Paylean™ is also present in the finisher diet.

[1] = test system: finisher gilts and Improvac males; test: Study 1: deaths, removals and animal welfare during the test period; conditions: for Deaths (dead/total pigs in treatment group) / Deaths, percentage of pigs: Study 1, entire 35 day test period
Source text: (§1) Pigs were selected to start on trial over three days during week 20 of the test year. […] All diets were formulated to contain 0.62 g available lysine/MJ DE and 13.8 MJ DE/kg.

[2] = test system: finisher gilts and Improvac males; format: in vivo, pig; conditions: for ADFI / FCR / Live weight Day 0 / Live weight Day 14 / Live weight Day 35: RAC 7.5 ppm / caffeine 0.5 kg/t in feed; for Live weight Day 0: day 0 baseline, 16 wk of age; for % pigs P2 >12 mm (carcass weight as covariate): carcass weight included as covariate; for % pigs P2 >12 mm: no covariate
Method: as §1
(§2) Data were subjected to an analysis of variance (ANOVA) with the main effects being dietary treatment and sex. Replicate (start date within week) was included in the analyses to account for the blocking factor. The experimental unit for all analyses was the pen of pigs. All analyses were performed using Genstat 8th Edition (Payne R W, Harding S A, Genstat Committee 2005 Genstat release 8 reference manual, USN International: Oxford UK)

[3] = test system: female and immunocastrated male pigs; test: Study 3: RAC+caffeine feeding strategy over summer, growth performance and carcase characteristics; format: in vivo, pig
Method: as §2, with “et al. 2005).” for “R W, Harding S A, Genstat Committee 2005 Genstat release 8 reference manual, USN International: Oxford UK)”

[4] = test system: female and immunocastrated male pigs; test: Study 2: carcass (meat) yield in a subset of carcasses followed through the boning room; format: in vivo, pig; conditions: Study 2 subset of carcasses, n = 12 per treatment
Source text: Pigs were slaughtered in a commercial abattoir at the conclusion of the test period. A subset of carcasses (n=12 per treatment) were randomly selected at the abattoir and followed through the boning room for meat yield assessment.
as §2, with “included in,” for “included in”, “(Payne et al. 2005).” for “(Payne R W, Harding S A, Genstat Committee 2005 Genstat release 8 reference manual, USN International: Oxford UK)”

[5] = test system: female and immunocastrated male pigs; test: Study 2: RAC+caffeine strategy on heavier weight finishers, growth performance and carcass characteristics; format: in vivo, pig; conditions: for ADFI / ADG / FCR: Study 2, RAC 7.5 ppm
Source text: Pigs were selected over a two week period. […] A: Control; B: […] The interpretation of results is then a direct measure of the impact of commercial diets without RAC and commercial diets that do contain RAC. […] Pigs were slaughtered in a commercial abattoir at the conclusion of the test period. A subset of carcasses (n=12 per treatment) were randomly selected at the abattoir and followed through the boning room for meat yield assessment. Data were subjected to an analysis of variance (ANOVA) with the main effects being dietary treatment and sex. Replicate (start date within week) was included in, the analyses to account for the blocking factor. The experimental unit for all analyses was the pen of pigs. All analyses were performed using Genstat 8th Edition (Payne et al. 2005).

[6] = test system: female and immunocastrated male pigs; conditions: Study 3, 35 day test period
Method: All animals were selected to start the trial on the one day. Prior to the start of the trial, all pigs were offered a commercial grower diet (no Paylean) and had been in their allocated pens from 10 weeks of age. No remixing of pigs occurred before the start of the test period. […] Oxytetracycline was included in water for two days every fortnight for lawsonia control.
The priming Improvac™ vaccination was administered to the male pigs at 13 weeks of age and the second vaccination at 17 weeks of age (day 0 of the experimental period). Pen weights were recorded at the beginning of the experimental period (day 0, 17 weeks of age) and again at day 14 and day 35 (prior to slaughter). Pen feed Intakes were also recorded over these time periods as measured by feed disappearance and feed conversion efficiency subsequently calculated. All deaths and removals were recorded and taken into account when calculating feed intake and feed efficiency by the adjustment of the number of days that pigs were on trial.

[7] = Study 1 (autumn), diets fed 35 days
[8] = Study 1 (autumn), diets fed 35 days, slaughter at 21 wk
[9] = caffeine 0.5 kg/t in feed, 0-14 days
[10] = caffeine 0.5 kg/t in feed, 0-28 days
[11] = caffeine 0.5 kg/t in feed, 14-28 days
[12] = Study 2, carcass weight included as covariate

## Cn1c(=O)c2c(ncn2C)n(C)c1=O [Caffeine]
Finisher pigs; caffeine 0.5 kg/t in diet
  Reduction of growth rate: 95 g/day
  Feed intake: 2.45 kg/day
Finisher pigs; caffeine 0.75 kg/t in diet
  Reduction of growth rate: 163 g/day
  Feed intake: 2.33 kg/day
[1]; Large White×Landrace, pig, in vivo
  Off trial: Meningitis (number of pigs): 1
[1]; Study 1, 0-14 days
  TOTAL deaths and removals (number of pigs): 0
[1]; Study 1, 14-35 days
  Deaths: Ileitis (number of pigs): 1
  Deaths: SD (number of pigs): 1
  TOTAL deaths and removals (number of pigs): 4
[1]
  Deaths (dead/total pigs in treatment group): 2/307
  Deaths, percentage of pigs: 0.65%
[1]; both, Large White×Landrace, pig, in vivo
  Off trial: Lame (number of pigs): 1
[2]; Study 1 (autumn), 0-14 days
  ADFI: 2.44 kg/day
  FCR: 2.64 kg/kg
[2]; Study 1 (autumn), 0-35 days
  ADFI: 2.70 kg/day
  FCR: 2.78 kg/kg
[2]; Study 1 (autumn), 14-35 days
  ADFI: 2.88 kg/day
  FCR: 2.89 kg/kg
[2]; Study 1 (autumn)
  Live weight Day 0: 61.3 kg
  Live weight Day 14: 74.2 kg
  Live weight Day 35: 95.3 kg
[2]; [7]
  Dressing %: 77.9%
  % pigs P2 >12 mm (carcass weight as covariate): 22.3%
  % pigs P2 >12 mm: 19.5%
[2]; [8]
  Carcass P2 (carcass weight as covariate): 10.4 mm
  Carcass weight: 74.1
[2]; Study 1, statistical comparison between diets
  Carcass weight: reduced carcass weight compared to either of the RAC treatment groups

## CC(CCc1ccc(O)cc1)NCC(O)c1ccc(O)cc1 (racemic) [RAC, Ractopamine hydrochloride]
[3]; Study 3 (summer), RAC 7.5 ppm, caffeine 0.5 kg/t in feed, day 14
  Live weight Day 14: 79.4 kg
[3]; Study 3 (summer), RAC 7.5 ppm, caffeine 0.5 kg/t in feed, day 35
  Live weight Day 35: 100.5 kg
[3]; Study 3 (summer), Day 0-14
  Average daily feed intake: 2.36 kg/day
  Average daily gain: 1.132 kg/day
  Feed conversion ratio: 2.15 kg/kg
[3]; Study 3 (summer), Day 0-35
  Average daily feed intake: 2.62 kg/day
  Average daily gain: 1.056 kg/day
  Feed conversion ratio: 2.48 kg/kg
[3]; Study 3 (summer), Day 14-35
  Average daily feed intake: 2.79 kg/day
  Average daily gain: 1.004 kg/day
  Feed conversion ratio: 2.80 kg/kg
[3]; Study 3 (summer), carcase
  Loin muscle depth: 58.4 mm
[3]; Study 3 (summer), carcase, carcase weight not taken into account
  P2: 11.3 mm
[3]; Study 3 (summer, 17-22 wk), RAC 7.5 ppm, caffeine 0.5 kg/t in feed, day 0 baseline
  Live weight Day 0: 63.5 kg
[3]; Study 3, RAC at 7.5 ppm over the summer period
  Response (feed efficiency, daily gain, carcass composition) in words: negligible
[3]; Study 3, entire test period
  Average feed consumed: 2.6 kg feed/day
[3]; Study 3, initial 14 day period, not significant
  Feed efficiency, more efficient than the control animals: approximately 4%
[3]; Study 3, initial 14 days
  Average feed intake: 2.36 kg/day
[4]
  Carcass P2 (carcass weight as covariate): 12.2 mm
  Cold carcass weight: 82.6 kg
  HSCW: 93.4 kg
  Loin depth (carcass weight as covariate): 58.2 mm
  Percentage Yield: Belly: 20.7%
  Percentage Yield: Belly Ribs: 11.39%
  Percentage Yield: Leg 90% chemical lean: 6.90%
  Percentage Yield: Middle 60-65% chemical lean: 2.43%
  Percentage Yield: Middle 80-85% chemical lean: 9.72%
  Percentage Yield: Middle rind plus fat: 10.58%
  Percentage Yield: Middle total fat: 7.36%
  Percentage Yield: Retail leg: 35.80%
  Percentage Yield: Tenderloin: 3.65%
  Percentage Yield: Topside cap off rind less: 7.79%
[1]; Study 1, 0-14 days
  Off trial: Lame (number of pigs): 1
  Off trial: Meningitis (number of pigs): 1
  Off trial: Wound (number of pigs): 1
  TOTAL deaths and removals (number of pigs): 3
[1]; Study 1, 14-35 days
  Deaths: Hernia (number of pigs): 1
  Deaths: Ileitis (number of pigs): 1
  Off trial: Lame (number of pigs): 1
  TOTAL deaths and removals (number of pigs): 3
[1]
  Deaths (dead/total pigs in treatment group): 2/298
  Deaths, percentage of pigs: 0.67%
[5]; Study 2
  Dressing %: 77.1%
[5]; Study 2 (22-26 wk), RAC 7.5 ppm, caffeine 0.5 kg/t in feed, day 0 baseline
  Live weight Day 0: 92.1 kg
[5]; Study 2 (22-26 wk), RAC 7.5 ppm, caffeine 0.5 kg/t in feed, day 14
  Live weight Day 14: 106 kg
[5]; Study 2 (22-26 wk), RAC 7.5 ppm, caffeine 0.5 kg/t in feed, day 28, in kg (unit assumed)
  Live weight Day 28: 120.1
[5]; [9]
  ADFI: 2.92 kg/day
  ADG: 0.995 kg/day
  FCR: 2.98 kg/kg
[5]; [10]
  ADFI: 3.04 kg/day
  ADG: 1.002 kg/day
  FCR: 3.11 kg/kg
[5]; [11]
  ADFI: 3.15 kg/day
  ADG: 1.008 kg/day
  FCR: 3.28 kg/kg
[5]; [12]
  Carcass P2 (carcass weight as covariate): 11.9 mm
  Loin depth (carcass weight as covariate): 58.3 mm
[5]; Study 2, no covariate
  Carcass P2: 12.0 mm
[5]; Study 2, slaughter at 26 wk
  Carcass weight: 92.9 kg
[2]; Study 1 (autumn), 0-14 days
  ADFI: 2.72 kg/day
  FCR: 2.34 kg/kg
[2]; Study 1 (autumn), 0-35 days
  ADFI: 2.96 kg/day
  FCR: 2.67 kg/kg
[2]; Study 1 (autumn), 14-35 days
  ADFI: 3.13 kg/day
  FCR: 2.92 kg/kg
[2]; Study 1 (autumn)
  Live weight Day 0: 61.2 kg
  Live weight Day 14: 77.6 kg
  Live weight Day 35: 100.1 kg
[2]; [7]
  Dressing %: 77.6%
  % pigs P2 >12 mm (carcass weight as covariate): 26.4%
  % pigs P2 >12 mm: 29.0%
[2]; [8]
  Carcass P2 (carcass weight as covariate): 10.9 mm
  Carcass weight: 77.6
[6]
  Combined deaths and removals (number/total pigs): 5/228
  Combined deaths and removals, percentage: 2.2%
  Deaths: APP (number of pigs): 2
  Deaths: Lame (number of pigs): 2
  Removals: Unthrifty (number of pigs): 1
